Results: publication PMC4519322 (PLoS Pathogens, 2015)
Where two headings read alike, the source gives them in different places.

Experiments:
A/England/1/1956 (H11N6) = assay: microbe, parasite or virus in culture; format: cell-based; details: Influenza A virus, MDCK
in vivo = details: Balb/c, mouse, 10 mg/kg
A/Udorn/307/1972 (H3N2) = assay: microbe, parasite or virus in culture; format: cell-based; details: Influenza A virus, H3N2, MDCK
A/Germany/N/1949 (H10N7) = assay: microbe, parasite or virus in culture; format: cell-based; details: Influenza A virus, MDCK
viral protein expression = format: cell-based
NP-RNA interaction = NP-RNA interaction (Influenza A virus, UniProt P15682); format: biochemical
A/Anhui/1/2013(H7N9) = assay: microbe, parasite or virus in culture; format: cell-based; details: Influenza A virus, H7N9, MDCK
[1] = test system: A/Astrakhan/263/1982 (H14N15); assay: microbe, parasite or virus in culture; format: cell-based; details: Influenza A virus, MDCK
CRM1 binding to NP = CRM1 binding to NP (Influenza A virus, UniProt P15682); format: biochemical
[2] = test system: influenza A/WSN/1933 (H1N1) virus; set-up: species or system Balb/c mice; details: mouse, in vivo
[3] = test system: A/Alberta/60/1976 (H12N5); assay: microbe, parasite or virus in culture; format: cell-based; details: Influenza A virus, MDCK
[4] = test system: A/Ontario/6118/1968 (H8N4); assay: microbe, parasite or virus in culture; format: cell-based; details: Influenza A virus, H8N4, MDCK
[5] = target: vRNA-induced NP oligomerization (Influenza A virus, UniProt P15682); format: biochemical
A/WSN/1933 (H1N1) virus = assay: microbe, parasite or virus in culture; format: cell-based, influenza A virus; details: for IC50 / IC90: Influenza A virus
[6] = mouse plasma
NP-NP interaction = NP-NP interaction (Influenza A virus, UniProt P15682); format: biochemical
vRNP activity = vRNP activity (Influenza A virus, UniProt P15682); format: cell-based, influenza A/WSN/1933 (H1N1)
NP = NP (Influenza A virus, UniProt P15682); format: cell-based, A/WSN/1933 (H1N1)
[7] = test system: A/Ck/yamaguchi/7/2004 (H5N1); assay: microbe, parasite or virus in culture; format: cell-based; details: Influenza A virus, H5N1, MDCK
[8] = test system: nuclear export of NP-mRFP-Flag; assay: in vitro nuclear export assay, digitonin-permeabilized HeLa cells; format: cell-based; details: with HeLa cell lysate, 42% with lysate alone
Experimental: HeLa cells were attached to glass cover slips at 37°C for 24 h and then transiently transfected with NP-mRFP-Flag/pCAGGS. After 48 h, cells were washed twice with cold transport buffer (20 mM HEPES (pH 7.4), 110 mM potassium acetate, 2 mM magnesium acetate, 1 mM EGTA (pH 7.4), 2 mM DTT, 1 μg/mL aprotinin, 1 μg/mL leupeptin, and 1 μg/mL pepstatin) and permeabilized with digitonin (50 μg/mL; Sigma) in transport buffer for 5 min on ice. The cells were then washed with cold transport buffer and incubated with apyrase (10 U/mL; Sigma) for 5 min on ice. After washing twice with cold transport buffer, the cells were incubated in cold transport buffer for 10 min on ice before addition of a the reaction mixture (40 μg HeLa cell lysate, 10 mg/mL bovine serum albumin (BSA), 10 mM ATP, 5 mM creatine phosphate, 0.64 U creatine kinase) containing (or not) the test compounds. The mixture was the incubated at 30°C for 1 h. After washing three times with cold transport buffer, mRFP fluorescence was observed under a confocal laser scanning microscope (FV 1000; Olympus). The fluorescence intensity in the nuclei was analyzed with MetaMorph software (Molecular Devices Inc., Downingtown, PA). The fluorescence intensity of NP-mRFP-Flag was quantified in >100 nuclei in each of three independent experiments.

[9] = test system: A/Massachusetts/3740/1965 (H6N2); assay: microbe, parasite or virus in culture; format: cell-based; details: Influenza A virus, H6N2, MDCK
in vitro = details: dog, CC50 (50% cytotoxicity concentration), MDCK cells, WST-1 assay
A/Tex/131 (H3N2) = assay: microbe, parasite or virus in culture; format: cell-based; details: Influenza A virus, H3N2, MDCK
[10] = test system: virus life cycle in MDCK cells; format: cell-based
[11] = test system: A/California/7/2009 virus (H1N1); assay: microbe, parasite or virus in culture; format: cell-based; details: Influenza A virus, H1N1, MDCK
[12] = test system: recombinant wild-type WSN (rWSN); assay: microbe, parasite or virus in culture; format: cell-based; details: Influenza A virus, H1N1 / WSN, read-out: IC50 (μM) WT rWSM (H1N1)
[13] = test system: Influenza A/WSN/1933 (H1N1) virus; format: cell-based
[14] = test system: vRNA encoding the PB2 subunit; format: cell-based, A/WSN/1933 (H1N1)
NP-Flag = NP-Flag (Influenza A virus, UniProt P15682); format: binding
[15] = in vivo; cited from earlier work
[16] = MDCK, read-out: IC50 (SAR analysis of RK424)

Sequence of vRNP activity (P15682 whole entry, looked up): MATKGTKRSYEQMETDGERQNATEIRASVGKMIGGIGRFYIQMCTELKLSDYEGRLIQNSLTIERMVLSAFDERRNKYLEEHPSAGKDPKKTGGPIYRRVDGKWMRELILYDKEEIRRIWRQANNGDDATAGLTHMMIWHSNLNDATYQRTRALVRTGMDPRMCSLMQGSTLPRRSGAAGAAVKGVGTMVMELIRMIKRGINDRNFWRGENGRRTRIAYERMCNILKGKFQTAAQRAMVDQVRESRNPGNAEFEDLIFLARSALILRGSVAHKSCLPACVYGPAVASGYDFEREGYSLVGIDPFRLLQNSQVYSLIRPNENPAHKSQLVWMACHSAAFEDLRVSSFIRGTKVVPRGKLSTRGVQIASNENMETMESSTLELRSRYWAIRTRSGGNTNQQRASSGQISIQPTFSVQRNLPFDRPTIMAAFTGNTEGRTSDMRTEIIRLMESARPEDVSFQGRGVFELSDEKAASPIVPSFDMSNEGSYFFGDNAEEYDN
Sequence of NP (P15682 whole entry, looked up): as above
Sequence of CRM1 binding to NP (P15682 whole entry, looked up): as above
Sequence of vRNA-induced NP oligomerization (P15682 whole entry, looked up): as above
Sequence of NP-NP interaction (P15682 whole entry, looked up): as above
Sequence of NP-RNA interaction (P15682 whole entry, looked up): as above
Sequence of NP-Flag (P15682 whole entry, looked up): as above

SMILES: O=C(O)c1cc(-c2ccc(-c3ccccc3)cc2)nc2ccccc12 [RK424]
- IC50 (A/England/1/1956 (H11N6)): 570 ± 160 nM
- IC90 (A/England/1/1956 (H11N6)): 940 ± 20 nM
- Vd (in vivo): 0.583 L/kg
- Cmax (in vivo; ip): 39200 ng/mL
- IC50 (A/Udorn/307/1972 (H3N2)): 490 ± 190 nM
- IC90 (A/Udorn/307/1972 (H3N2)): 1230 ± 240 nM
- IC50 (A/Germany/N/1949 (H10N7)): 580 ± 140 nM
- IC90 (A/Germany/N/1949 (H10N7)): 1090 ± 80 nM
- viral protein expression (western blotting) (viral protein expression): reduction in viral protein expression
- RNA binding, less than control samples (NP-RNA interaction): ~50%
- IC50 (A/Anhui/1/2013(H7N9)): 600 ± 120 nM
- IC90 (A/Anhui/1/2013(H7N9)): 1140 ± 260 nM
- IC50 [1]: 420 ± 60 nM
- IC90 [1]: 950 ± 10 nM
- binding of CRM1 to NP-Flag beads (CRM1 binding to NP): binding was inhibited
- body weight change (in words) [2]: lost less weight
- reduction in the virus titer in the lung compared with controls [2]: ~ 2 log
- virus titer in the lungs [2]: 2.9×10^3 PFU/mL
- IC50 [3]: 620 ± 230 nM
- IC90 [3]: 1510 ± 870 nM
- IC50 [4]: 490 ± 40 nM
- IC90 [4]: 910 ± 20 nM
- rate of NP oligomerization [5]: dose-dependent reduction in the rate of oligomerization
- plaque formation (number and size) (A/WSN/1933 (H1N1) virus): reduction in the number, but not the size, of viral plaques
- IC50 (A/WSN/1933 (H1N1) virus; MDCK): 480 ± 190 nM
- IC90 (A/WSN/1933 (H1N1) virus; MDCK): 1190 ± 360 nM
- IC50 (A/WSN/1933 (H1N1) virus; read-out: IC50 expressed as ng/mL): 163 ng/mL
- IC90 (A/WSN/1933 (H1N1) virus; read-out: IC90 expressed as ng/mL): 390 ng/mL
- drug free from plasma protein [6]: 0.4%
- plasma protein binding ([6]; 50 μM, 37°C 30 min): 99.6%
- binding of NP-HA to NP-mRFP-Flag beads (NP-NP interaction): inhibited the binding of NP-HA to NP-mRFP-Flag beads in a dose-dependent manner
- luciferase activity (vRNP activity) (vRNP activity): notable and dose-dependent reduction in luciferase activity
- NP localization in virus-infected HeLa cells (NP): nuclear rather than cytoplasmic localization of NP
- IC50 [7]: 570 ± 40 nM
- IC90 [7]: 930 ± 20 nM
- mRFP fluorescence intensity in the nucleus, % of buffer-treated cells ([8]; 2 μM): 76%
- mRFP fluorescence intensity in the nucleus, % of buffer-treated cells ([8]; 10 μM): 134%
- IC50 [9]: 590 ± 90 nM
- IC90 [9]: 1590 ± 120 nM
- CC50 (in vitro): ≥ 50000 nM
- Cmax relative to the in vitro IC50 concentration (Cmax 39200 ng/mL vs 162.7 ng/mL): more than 200 times
- bioavailability via the oral route relative to the intraperitoneal route, lower by (mice, 10 mg/kg): 50%
- free drug maximum concentration (Cfree max) (mice, intravenous 1 mg/kg, plasma): 11.4 ng/mL
- free drug maximum concentration (Cfree max) (mice, oral route 10 mg/kg): 46.4 ng/mL
- free drug maximum concentration (Cfree max) (mice, context intraperitoneal 10 mg/kg): 156.8 ng/mL
- IC50 (A/Tex/131 (H3N2)): 590 ± 130 nM
- IC90 (A/Tex/131 (H3N2)): 980 ± 20 nM
- antiviral effect by time of addition [10]: prominent antiviral effect at an early stage in the virus life cycle
- IC50 [11]: 400 ± 70 nM
- IC90 [11]: 880 ± 20 nM
- IC50 [12]: 0.38 ± 0.04 µM
- effect on viral replication when added prior to virus inoculation [13]: did not interfere with viral replication
- vRNA expression (FISH) [14]: significant reduction in vRNA expression
- binding of wild-type NP-Flag to RK424 beads (NP-Flag): bound to RK424 beads but not to control beads

SMILES: CCC(=C/[C@H](C)C/C=C/C(C)=C/[C@@H](C)C(=O)[C@@H](C)[C@H](O)[C@@H](C)C/C(C)=C/C(=O)O)/C=C/[C@@H]1OC(=O)C=C[C@@H]1C [leptomycin B, reference compound]
- binding of CRM1 to NP-Flag beads (CRM1 binding to NP): binding was inhibited
- mRFP fluorescence intensity in the nucleus, % of buffer-treated cells ([8]; concentration not given): 97%

SMILES: NC(=O)c1cc(-c2ccc(-c3ccccc3)cc2)nc2ccccc12 [Analog #1]
- antiviral effect relative to RK424 (SAR, in words) (A/WSN/1933 (H1N1) virus): partial reduction in the antiviral effect
- IC50 (A/WSN/1933 (H1N1) virus; [16]): 10100 ± 2070 nM
- CC50 (in vitro): > 10000 nM

SMILES: CCOC(=O)C1=C[C@@H](OC(CC)CC)[C@H](NC(C)=O)[C@@H](N)C1 [oseltamivir phosphate, reference compound]
- body weight change (in words) [2]: no weight loss
- luciferase activity (vRNP activity) (vRNP activity): did not significantly inhibit luciferase activity
- NP localization in virus-infected HeLa cells (NP): NP localized in both the nucleus and cytoplasm

SMILES: O=C(O)c1cc(-c2ccc(Oc3ccccc3)cc2)nc2ccccc12 [Analog #4]
- antiviral effect relative to RK424 (SAR, in words) (A/WSN/1933 (H1N1) virus): antiviral effect comparable with that of RK424
- IC50 (A/WSN/1933 (H1N1) virus; [16]): 430 ± 150 nM
- CC50 (in vitro): > 10000 nM

SMILES: O=C(O)c1cc(N2CCN(c3ccccc3)CC2)nc2ccccc12 [Analog #2]
- antiviral effect relative to RK424 (SAR, in words) (A/WSN/1933 (H1N1) virus): complete loss of antiviral activity
- IC50 (A/WSN/1933 (H1N1) virus; [16]): > 30000 nM
- CC50 (in vitro): > 10000 nM

SMILES: Cc1onc(-c2ccccc2)c1C(=O)N1CCN(c2ccc([N+](=O)[O-])cc2Cl)CC1 [Nucleozin, nucleozin, reference compound]
- IC50 [12]: 0.2 ± 0.03 µM

SMILES: O=C(O)c1ccnc(-c2ccc(-c3ccccc3)cc2)c1 [Analog #3]
- antiviral effect relative to RK424 (SAR, in words) (A/WSN/1933 (H1N1) virus): complete loss of antiviral activity
- IC50 (A/WSN/1933 (H1N1) virus; [16]): > 30000 nM
- CC50 (in vitro): > 10000 nM

SMILES: NC(=O)c1nc(F)c[nH]c1=O [Analog T-705, favipiravir]
- recovery from morbidity, of that of the negative control group [15]: 20%
- viral titers in the lung [15]: 3.50 log10 PFU/mL
